Converted amounts (≈) assume the structure as drawn.
Tests used:
[1] = tested on: FaDu (squamous cell carcinoma of the pharynx); assay: BrdU assay; format: cell-based; conditions: Homo sapiens, 24 h, read-out: IC50 ± SD, antiproliferative activity
Protocol: (§1) Since the inhibition of human DNA topoisomerase II should result in decreased proliferation of cancer cells, compounds 1-3 were tested using BrdU assay against a panel of cancer cell lines, including MCF-7 (estrogen-dependent human breast cancer cells), MDA-MB-231 (estrogen-independent human breast cancer cells), SCC-25 (squamous cell carcinoma of the tongue), FaDu (squamous cell carcinoma of the pharynx), A549 (human lung carcinoma), AGS (human gastric adenocarcinoma), LS-180, HT-29 (colon cancer cell lines), T98G (glioblastoma cells), and A375 (melanoma cells). Human normal skin fibroblasts (CRL-2072) were also used as a reference cell line. The BrdU assay allows quantification of cell proliferation since it measures incorporation of thymidine analogue (BrdU) during DNA replication. […] However, although the antiproliferative effect caused by 3 was mostly weaker (except for A549 and A375) than observed for 1, but the former compound was also characterised by lower toxicity against human normal cells. It results in selectivity index approaching 125 and 57, when it comes to lung cancer (A549) and melanoma cells (A375), respectively.
(§2) Cytotoxicity of the synthesised compounds were examined against a panel of the cancer cell lines, MCF-7 (estrogen-dependent human breast cancer cells), MDA-MB-231 (oestrogen-independent human breast cancer cells), SCC- 25 (squamous cell carcinoma of the tongue), FaDu (squamous cell carcinoma of the pharynx), A- 549 (human lung carcinoma), AGS (human gastric adenocarcinoma), LS-180, HT-29 (colon cancer cell lines), T98G (glioblastoma cells), A375 (melanoma cells). Human embryonic kidney (HEK-293) cells and human normal skin fibroblasts (CRL-2072) were used as reference cell lines. The investigated cell lines were obtained from American Type Culture Collection (ATCC; Manassas, VA, USA). A375, MCF-7, MDA-MB-231, T98G cells were cultured in Dulbecco’s Modified Eagle’s Medium (DMEM) (Sigma Aldrich, St. Louis, MO, USA) supplemented with 10% heat inactivated foetal bovine serum (FBS), penicillin (100 U/mL), and streptomycin (100 μg/mL). SCC-25 cells were cultured in 1:1 mixture of Dulbecco’s modified Eagle’s medium and Ham’s F12 Medium (Sigma Aldrich, St. Louis, MO, USA) supplemented with 400 ng/ml hydrocortisone, 10% FBS, penicillin (100 U/mL), and streptomycin (100 μg/mL). A549 and AGS cells were maintained in F-12K Medium (Sigma Aldrich, St. Louis, MO, USA). LS-180 and FaDu cells were cultured in Eagle’s Minimum Essential Medium. HT-29 cells were maintained in McCoy’s 5 A Medium (Sigma Aldrich, St. Louis, MO, USA) supplemented with 10%FBS, penicillin (100 U/mL), and streptomycin (100 μg/mL). All the cells were maintained at 37 °C in a humidified atmosphere of 5% CO2.
(§3) The BrdU assay was performed to determine the effect of synthesised compounds on the proliferation of cancer cells. BrdU assay indicates the rate of incorporation of 5′-bromo-2′-deoxy-uridine (BrdU) during DNA biosynthesis. In brief, cells were plated in 96-well plates (NUNC, Roskilde, Denmark) at the density of 3 × 10^4 cells/mL. […] Cell proliferation was examined after 24 h and 48 h of incubation according to the manufacturer’s protocol (Cell Proliferation ELISA BrdU, Roche Diagnostics GmbH, Penzberg,)Germany).

[2] = tested on: MDA-MB-231 (estrogen-independent human breast cancer cells); assay: BrdU assay; format: cell-based; conditions: MDA-MB-231, BrdU, 24 h, read-out: IC50 ± SD, antiproliferative activity
Protocol: as §1, §2, §3

[3] = tested on: Human normal skin fibroblasts (CRL-2072); assay: BrdU assay; format: cell-based; conditions: Skin fibroblast, 24 h, read-out: IC50 ± SD, antiproliferative activity
Protocol: as §1, §2, §3

[4] = tested on: SCC-25 (squamous cell carcinoma of the tongue); assay: BrdU assay; format: cell-based; conditions: Homo sapiens; SCC-25, BrdU, 24 h; read-out: IC50 ± SD, antiproliferative activity
Protocol: as §1, §2, §3

[5] = tested on: AGS (human gastric adenocarcinoma); assay: BrdU assay; format: cell-based; conditions: 24 h, read-out: IC50 ± SD, antiproliferative activity
Protocol: as §1, §2, §3

[6] = tested on: T98G (glioblastoma cells); assay: BrdU assay; format: cell-based; conditions: Homo sapiens, 24 h, read-out: IC50 ± SD, antiproliferative activity
Protocol: as §1, §2, §3

[7] = tested on: MCF-7 (estrogen-dependent human breast cancer cells); assay: BrdU assay; format: cell-based; conditions: MCF7, MCF-7, BrdU, 24 h, read-out: IC50 ± SD, antiproliferative activity
Protocol: as §1, §2, §3

[8] = tested on: A549 (human lung carcinoma); assay: BrdU assay; format: cell-based; conditions: for IC50: Homo sapiens, A549, BrdU, 24 h, read-out: IC50 ± SD, antiproliferative activity
Protocol: as §1, §2, §3

[9] = tested on: HT-29 (colon cancer cell line); assay: BrdU assay; format: cell-based; conditions: Homo sapiens; HT-29, BrdU, 24 h; read-out: IC50 ± SD, antiproliferative activity
Protocol: as §1, §2, §3

[10] = tested on: LS180 (colon cancer cell line); assay: BrdU assay; format: cell-based; conditions: Homo sapiens, 24 h, read-out: IC50 ± SD, antiproliferative activity
Protocol: as §1, §2, §3

[11] = tested on: A375 (melanoma cells); assay: BrdU assay; format: cell-based, human; conditions: for IC50: Homo sapiens, A-375, A375, BrdU, 24 h, read-out: IC50 ± SD, antiproliferative activity
Protocol: as §1, §2, §3

[12] = tested on: panel of cancer cell lines; assay: BrdU assay, whole panel; format: cell-based, human; conditions: cell line not named, highest value
Protocol: as §1, with “respectively. […]” for “respectively.”

Row | SMILES | IC50 [1] | IC50 [2] | IC50 [3] | IC50 [4] | IC50 [5] | IC50 [6] | IC50 [7] | selectivity index, A549 vs. human normal skin fibroblasts ([8]; BrdU assay, lung cancer (A549)) | IC50 [8] | IC50 [9] | IC50 [10] | selectivity index, A375 vs. human normal skin fibroblasts ([11]; BrdU assay, melanoma cells (A375)) | IC50 [11] | melting point | antiproliferative activity, fold higher than that of etoposide [12]
1 | O=C(NNC(=S)Nc1ccc(N=Nc2ccccc2)cc1)c1ccccc1[N+](=O)[O-] [Compound 3, 4-(4-Phenylazophenyl)-1-(2-nitrobenzoyl)thiosemicarbazide] | 9.04 ± 0.39 mg/L (≈ 21.5 µM) | > 100 mg/L | 32.1 ± 1.75 mg/L (≈ 76.4 µM) | 4.89 ± 0.22 mg/L (≈ 11.6 µM) | 43.9 ± 1.94 mg/L (≈ 104 µM) | 6.28 ± 0.37 mg/L (≈ 14.9 µM) | 32.5 ± 1.98 mg/L (≈ 77.4 µM) | ~125 | 0.25 ± 0.01 mg/L (≈ 0.595 µM) | 13.1 ± 0.81 mg/L (≈ 31.3 µM) | 10.6 ± 0.24 mg/L (≈ 25.1 µM) | ~57 | 0.56 ± 0.03 mg/L (≈ 1.33 µM) | 168 to 170 °C | –
2 | COc1cc([C@@H]2c3cc4c(cc3[C@@H](O[C@@H]3O[C@@H]5CO[C@@H](C)O[C@H]5[C@H](O)[C@H]3O)[C@H]3COC(=O)[C@H]23)OCO4)cc(OC)c1O [Etoposide, etoposide, reference compound] | 12.8 ± 0.27 mg/L (≈ 21.8 µM) | > 100 mg/L | 55.7 ± 3.01 mg/L (≈ 94.6 µM) | 21.2 ± 0.74 mg/L (≈ 36 µM) | 46 ± 2.61 mg/L (≈ 78.1 µM) | 29.5 ± 0.93 mg/L (≈ 50.1 µM) | 54.9 ± 1.82 mg/L (≈ 93.3 µM) | – | 2.6 ± 0.11 mg/L (≈ 4.42 µM) | 19.9 ± 0.25 mg/L (≈ 33.9 µM) | > 100 mg/L | – | 9.18 ± 0.15 mg/L (≈ 15.6 µM) | – | –
3 | CC(C)c1cccc(C(C)C)c1NC(=S)NNC(=O)Cc1cccc2ccccc12 [Compound 1, 4-(2,6-Diisopropylphenyl)-1-[(naphth-1-yl)acetyl]thiosemicarbazide] | 1.04 ± 0.04 mg/L (≈ 2.48 µM) | 26.3 ± 0.99 mg/L (≈ 62.7 µM) | 22.4 ± 0.94 mg/L (≈ 53.3 µM) | 1.1 ± 0.02 mg/L (≈ 2.62 µM) | 0.51 ± 0.02 mg/L (≈ 1.22 µM) | 0.72 ± 0.02 mg/L (≈ 1.72 µM) | 1.19 ± 0.04 mg/L (≈ 2.84 µM) | – | 0.23 ± 0.01 mg/L (≈ 0.548 µM) | 0.44 ± 0.03 mg/L (≈ 1.05 µM) | 4.68 ± 0.17 mg/L (≈ 11.2 µM) | – | 0.96 ± 0.03 mg/L (≈ 2.29 µM) | 140 to 142 °C | ≤ 90 fold
4 | O=C(Cc1cccc2ccccc12)NNC(=S)Nc1ccc(N=Nc2ccccc2)cc1 [Compound 2, 4-(4-Phenylazophenyl)-1-[(naphth-1-yl)acetyl]thiosemicarbazide] | 7.11 ± 0.34 mg/L (≈ 16.2 µM) | > 100 mg/L | 24.2 ± 1.4 mg/L (≈ 55 µM) | 1.06 ± 0.04 mg/L (≈ 2.41 µM) | 62.3 ± 3.04 mg/L (≈ 142 µM) | 6.19 ± 1.83 mg/L (≈ 14.1 µM) | 33.2 ± 1.05 mg/L (≈ 75.4 µM) | – | 0.83 ± 0.03 mg/L (≈ 1.89 µM) | 9.47 ± 0.51 mg/L (≈ 21.5 µM) | 10.4 ± 0.77 mg/L (≈ 23.6 µM) | – | 0.85 ± 0.04 mg/L (≈ 1.93 µM) | 178 to 180 °C | –
